pIC50, pKi: −log10 of the molar value.
Tests used:
MT-3 receptor = target: T1, MT-3 receptor (Mesocricetus auratus, UniProt A0ABM2YAB8); experiment: 125I-melatonin binding in hamster brain membranes, MT-3
T1 construct: from tissue; host or cells: hamster brain membranes
T1 sequence (A0ABM2YAB8 1-231): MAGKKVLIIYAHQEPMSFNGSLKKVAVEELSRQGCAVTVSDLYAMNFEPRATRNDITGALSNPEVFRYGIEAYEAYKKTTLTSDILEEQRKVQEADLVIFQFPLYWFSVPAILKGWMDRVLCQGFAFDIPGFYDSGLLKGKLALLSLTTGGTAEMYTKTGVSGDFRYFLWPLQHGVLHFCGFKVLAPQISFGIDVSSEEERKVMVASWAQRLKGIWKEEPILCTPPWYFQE
Description: Aliquots of suspended membranes of human recombinant CHP-K1 (Chinese hamster ovary) cells stably expressing human melatonin-1 or melatonin-2 (MT-1 or MT-2) receptors or of hamster brain (MT-3) were incubated at 25° C. with 0.05 nM ^125I-melatonin in buffer (25 mM HEPES, pH 7.4, 5 mM MgCl2, 1 mM CaCl2, 0.5% BSA) or with 0.1 nM for MT-3 alone or in the presence of 1 nM, 10 nM, 0.1 μM, 1 μM and 10 μM of test substances N-[2-(5-methoxy-indol-3-yl)-ethyl]-commenamide, N-[2-(5-methoxy-indol-3-yl)-ethyl]-comanilamide, N-[2-(5-methoxy-indol-3-yl)-ethyl]-coumalylamide, N-[2-(5-methoxy-indol-3-yl)-ethyl]-2-methoxy-commenamide, N-[2-(5-methoxy-indol-3-yl)-ethyl]-chelidonamide, O-[2-(5-methoxy-indol-3-yl)-ethyl]-comenic ester, N-[2-(5-methoxy-indol-3-yl)-ethyl]-2-Pyrone-6-carboxamide and N-[2-(2-bromo-5-methoxy-indol-3-yl)-ethyl]-coumalylamide for 3 hours for MT-1, 4 hours for MT-2 and 30 min for MT-3. The binding reaction was terminated and the membranes were washed with 4 ml of ice-cold HEPES buffer by vacuum filtration. Membranes were then collected, and the filters containing the bound ^125I-melatonin were assayed for the amount of radioactivity in a […]. Non-specific binding was evaluated using a reaction with 1 μM 6-chloromelatonin (MT-1 and MT-2) or 30 μM melatonin (MT-3).

CD1 mice = experiment: Motimeter assay (motor activity and rearing); format: in vivo; conditions: 100 mg/kg i.p.
Description: Mice were starved for 16 hrs before treatment. Male CD1 mice, weighing 25-30 g, were treated intraperitoneally with melatonin, N-[2-(5-methoxy-indol-3-yl)-ethyl]-comanilamide or N-[2-(5-methoxy-indol-3-yl)-ethyl]-commenamide in a dose of 100 mg/kg. The horizontal (i.e. locomotion) and vertical (i.e. rearing) movements were measured for 5 minutes two times, 30 and 60 min after treatment. Eight mice/group were used. The 4-channel activity meter is a square-shaped frame containing transparent infra-red permeable acrylic cages. The frames feature two pairs of light-beam strips for measuring horizontal movements, and two pairs for measuring rearing. Each strip is equipped with 16 infra-red sensors.

3T3-L1 adipocytes = experiment: 2-[3H]-deoxy-d-glucose uptake in FFA-treated 3T3-L1 adipocyte model; format: cell-based
Description: Adipocytes were glucose-starved for 1 h in Hepes-salt buffer containing 2% FFA-free BSA. FFA (free fatty acids) were then added to the cells at the indicated concentrations (300 μM) for the indicated times (3 h). 10 min before the end of the FFA treatment, the cells were stimulated with insulin (20 nM)/melatonin (10 nM)/test compounds (10 nM) at 37° C. 2-[^3H]-deoxy-d-glucose at 1 μCi/mL and 0.1 mM unlabeled 2-deoxyglucose in KRP-HEPES buffer was added and cells were incubated for 10 min at room temperature. Non-specific glucose uptake was measured by parallel incubations in the presence of 10 μM cytochalasin B, which blocks transporter-mediated glucose uptake, and was subtracted from total uptake in each assay. Cells were then washed three times with ice-cold phosphate buffered saline (PBS) and solubilized in 1M NaOH for 20 minutes. The sample was then counted using a scintillation counter. 2-[^3H]-deoxy-d-glucose uptake was assayed in triplicates for each condition in at least 3 independent experiments. 2-[^3H]-deoxy-d-glucose uptake (counts per minute-cpm) are presented as mean+SE of triplicates in a representative experiment or results of three independent experiments. ANOVA test was used with significance of P<0.05 (Table 7).

PC12 cells = experiment: Glutamate-induced loss of cell viability in PC12 cells (MTT); format: cell-based; conditions: 1 uM, without glutamate
Description: For the cell viability assays, 24 h after seeding in 96-well plates, the cultures were pretreated with N-[2-(5-methoxy-indol-3-yl)-ethyl]-comanilamide (100 pm, 1 nM, 10 nM, 100 nM, 1 uM and 10 uM) or melatonin (1 uM) for 0 h before exposure to 4 mM glutamate. After 24 h incubation, cellular viability was evaluated by MTT assay.
PC12 cell viability was determined by the conventional 3-(4,5-dimethylthiazol-2-yl)-2,5-diphenyltetrazolium bromide (MTT) assay. PC12 cells were treated with MTT solution (0.5 mg/ml) and were then incubated at 37° C. for 4 hrs. The medium was removed and 150 μl DMSO/well was added to dissolve formazan. The absorbance at 570 nm was recorded using an enzyme-linked immunosorbent assay reader and the percentage of cell growth inhibition was calculated as follows: Cell viability (%)=A570 (treatment)/A570 (control)×100.

## COc1ccc2[nH]cc(CCNC(C)=O)c2c1 [Melatonin, N-acetyl-5-methoxy-tryptamine, reference compound]
MT-3 receptor; 0.1 nM 125I-melatonin, 30 min, read-out: MT-3 receptor binding IC50
  pIC50: 7.33
MT-3 receptor; 0.1 nM 125I-melatonin, 30 min, read-out: MT-3 receptor binding KI
  pKi: 7.34
MT-3 receptor; read-out: MT-3 receptor binding % inhibition by 10 μM
  inhibition at 10 µM: 100%
CD1 mice; 30-35 min and 60-65 min after treatment
  effect on motor activity and rearing: did not change significantly the motor activity and rearing
CD1 mice; 30 min, vs vehicle
  motor activity (horizontal movement) changes (%) 30 min: −26.5%
CD1 mice; 30 min after treatment, 5 min measurement
  motor activity (horizontal movement) 30 min Means ± SE: 316.1 ± 45.5
CD1 mice; 60 min, vs vehicle
  motor activity (horizontal movement) changes (%) 60 min: −19.0%
CD1 mice; 60 min after treatment, 5 min measurement
  motor activity (horizontal movement) 60 min Means ± SE: 256.1 ± 27.3
3T3-L1 adipocytes; FFA-impaired insulin signaling
  effect on glucose transport in FFA-treated adipocytes: improved glucose transport
3T3-L1 adipocytes; Insulin 20 nM + FFA 300 μM (3 h) + substance 10 nM
  2-[3H]-deoxy-d-glucose uptake (cpm): 1489 cpm
PC12 cells
  effect on cell viability without glutamate: had no effect on the cell viability
